# Measurements reported in ChEMBL document CHEMBL4699592, “Nature-Inspired (di)Azine-Bridged Bisindole Alkaloids with Potent Antibacterial In Vitro and In Vivo Efficacy against Methicillin-Resistant Staphylococcus aureus” (J Med Chem, 2020).
# The source made the active and inactive calls. No cut-off for these calls is given here.
# Legend:
# Pseudomonas aeruginosa [1] = assay: Synergistic antibacterial activity against Pseudomonas aeruginosa ATCC 27853 assessed as FIC after 24 hrs in presence of colistin by checkerboard assay relative to test compound MIC; format: functional
# Escherichia coli [2] = assay: Synergistic antimicrobial activity against Escherichia coli ATCC BAA 2469 assessed as FIC after 24 hrs in presence of colistin by checkerboard assay relative to colistin; format: functional
# MRC5 = assay: Cytotoxicity against human MRC5 cells assessed as reduction in cell viability at >=12.5 uM measured after 48 hrs by resazurin dye based fluorescence assay; details: mrc5, 48 h
# Escherichia coli [3] = assay: Synergistic antimicrobial activity against Escherichia coli ATCC BAA 2469 assessed as FIC after 24 hrs in presence of colistin by checkerboard assay relative to test compound MIC; format: functional
# Klebsiella pneumoniae [4] = assay: Antibacterial activity against Klebsiella pneumoniae ATCC 700603 after 24 hrs in presence of colistin by checkerboard assay relative to test compound MIC; format: functional
# Staphylococcus aureus [5] = assay: Bactericidal activity against […] Staphylococcus aureus ATCC 700699 assessed as reduction in bacterial viability at 5 fold MIC incubated for 6 hrs by time kill assay relative to control; format: functional
# Escherichia coli [6] = assay: Antimicrobial activity against Escherichia coli ATCC BAA 2469 after 24 hrs by broth microdilution assay; format: functional
# [7] = Selectivity index, ratio of IC50 for cytotoxicity against human MRC5 cells to MIC90 for antibacterial activity against […] Staphylococcus aureus ATCC 700699; format: toxicity, cell-based; details: read-out: Selectivity Index
# Escherichia coli [8] = assay: Synergistic antimicrobial activity against Escherichia coli ATCC BAA 2469 assessed as FICI after 24 hrs in presence of colistin by checkerboard assay; format: functional
# [9] = Solubility of compound in pH 7.7 DMSO:PBS solution; format: physicochemical; details: buffer
# HEK293 = assay: Cytotoxicity against HEK293 cells assessed as reduction in cell viability at >12.5 uM measured after 48 hrs by resazurin dye based fluorescence assay; details: human, hek293, 48 h
# Acinetobacter baumannii [10] = assay: Synergistic antibacterial activity against Acinetobacter baumannii ATCC BAA-1605 assessed as FICI after 24 hrs in presence of colistin by checkerboard assay; format: functional
# Klebsiella pneumoniae [11] = assay: Antibacterial activity against Klebsiella pneumoniae ATCC 700603 after 24 hrs by broth microdilution method; format: functional
# Enterococcus faecalis [12] = assay: Antibacterial activity against Enterococcus faecalis ATCC 51299 at 0.78 to 100 uM after 24 hrs by broth microdilution method; format: functional, organism-based; details: dose microM 0.78-100, time 24.0 hrs
# Staphylococcus aureus [13] = assay: Antibacterial activity against methicillin-resistant Staphylococcus aureus USA300 LAC at 0.15 to 25 uM incubated for 24 hrs under low glucose medium by resazurin dye based fluorescence assay; format: functional, organism-based; details: dose microM 0.15-25, time 24.0 hrs
# Enterococcus faecalis [14] = assay: Antibacterial activity against Enterococcus faecalis ATCC 29212 at 0.78 to 100 uM after 24 hrs by broth microdilution method; format: functional, organism-based; details: dose microM 0.78-100, time 24.0 hrs
# Acinetobacter baumannii [15] = assay: Antibacterial activity against Acinetobacter baumannii ATCC BAA-1605 at 0.78 to 100 uM after 24 hrs by broth microdilution method; format: functional, organism-based; details: dose microM 0.78-100, time 24.0 hrs
# Staphylococcus aureus [16] = assay: Bactericidal activity against […] Staphylococcus aureus ATCC 700699 assessed as colony forming units at 5 fold MIC measured after 24 hrs by time kill assay; format: functional
# Klebsiella pneumoniae [17] = assay: Synergistic antibacterial activity against Klebsiella pneumoniae ATCC 700603 assessed as FICI after 24 hrs in presence of colistin by checkerboard assay; format: functional
# Pseudomonas aeruginosa [18] = assay: Antibacterial activity against Pseudomonas aeruginosa ATCC 27853 measured after 24 hrs by broth microdilution method; format: functional
# HepG2 = assay: Cytotoxicity against human HepG2 cells assessed as reduction in cell viability at >12.5 uM measured after 48 hrs by resazurin dye based fluorescence assay; details: hepg2, 48 h
# Staphylococcus aureus [19] = assay: Antibacterial activity against methicillin-resistant Staphylococcus aureus USA300 LAC at 0.15 to 25 uM incubated for 24 hrs under low pyruvate containing medium by resazurin dye based fluorescence assay; format: functional, organism-based; details: dose microM 0.15-25, time 24.0 hrs
# Acinetobacter baumannii [20] = assay: Antibacterial activity against Acinetobacter baumannii ATCC BAA-1605 after 24 hrs by broth microdilution method; format: functional
# Klebsiella pneumoniae [21] = assay: Synergistic antibacterial activity against Klebsiella pneumoniae ATCC 700603 assessed as FIC after 24 hrs in presence of colistin by checkerboard assay relative to colistin; format: functional
# [22] = Cytotoxicity against human CLS-54 cells assessed as reduction in cell viability at >12.5 uM measured after 48 hrs by resazurin dye based fluorescence assay; details: cls-54, 48 h
# Staphylococcus aureus [23] = assay: Antibacterial activity against methicillin susceptible Staphylococcus aureus ATCC 25923 at 0.78 to 100 uM after 24 hrs by broth microdilution method; format: functional, organism-based; details: dose microM 0.78-100, time 24.0 hrs
# [24] = tested on: Mycobacterium tuberculosis; assay: Antibacterial activity against Mycobacterium tuberculosis H37Rv at 0.78 to 100 uM after 5 days by resazurin dye based fluorescence assay; format: functional, organism-based; details: dose microM 0.78-100, time 5.0 day
# Staphylococcus aureus [25] = assay: Inhibition of Staphylococcus aureus ATCC 700699 N-terminal His6-tagged pyruvate kinase expressed in Escherichia coli NiCo21(DE3) at 12.5 uM using phosphoenolpyruvate as substrate measured for 5 mins by LDH-coupled assay
# Staphylococcus aureus [26] = assay: Antibacterial activity against methicillin-resistant pyruvate kinase deficient Staphylococcus aureus USA300 LAC at 0.15 to 25 uM incubated for 24 hrs under low pyruvate containing medium by resazurin dye based fluorescence assay; format: functional, organism-based; details: dose microM 0.15-25, time 24.0 hrs
# Erythrocyte = assay: Hemolytic activity against sheep erythrocytes up to 100 uM measured after 1 hr; format: ADME, cell-based, Ovis aries
# [27] = molecular target: Pyruvate kinase PKM (Oryctolagus cuniculus) (UniProt P11974); assay: Inhibition of rabbit muscle pyruvate kinase up to 12.5 uM using phosphoenolpyruvate as substrate measured for 5 mins by LDH-coupled assay; details: dose microM <=12.5, time 5.0 min
# Enterococcus faecium [28] = assay: Antibacterial activity against vancomycin-resistant Enterococcus faecium ATCC 700221 at 0.78 to 100 uM after 24 hrs by broth microdilution method; format: functional, organism-based; details: dose microM 0.78-100, time 24.0 hrs
# [29] = Solubility of compound in pH 7.7 PBS buffer; format: physicochemical
# Enterococcus faecium [30] = assay: Antibacterial activity against vancomycin-resistant Enterococcus faecium ATCC 35667 at 0.78 to 100 uM after 24 hrs by broth microdilution method; format: functional, organism-based; details: dose microM 0.78-100, time 24.0 hrs
# Staphylococcus aureus [31] = assay: Antibacterial activity against vancomycin-sensitive Staphylococcus aureus T144 infected in Balb/c mouse assessed as increase in wound healing at 5 mg/kg applied topically measured daily for 12 days by microscopic analysis; format: functional, organism-based; details: time 12.0 day
# Klebsiella pneumoniae [32] = assay: Synergistic antibacterial activity against Klebsiella pneumoniae ATCC 700603 assessed as FIC after 24 hrs in presence of colistin by checkerboard assay relative to test compound MIC; format: functional
# Pseudomonas aeruginosa [33] = assay: Synergistic antibacterial activity against Pseudomonas aeruginosa ATCC 27853 assessed as FIC after 24 hrs in presence of colistin by checkerboard assay relative to colistin; format: functional
# Escherichia coli [34] = assay: Antimicrobial activity against Escherichia coli ATCC BAA 2469 after 24 hrs in presence of colistin by checkerboard assay relative to test compound MIC; format: functional
# Staphylococcus aureus [35] = assay: Antibacterial activity against vancomycin-sensitive Staphylococcus aureus T144 infected in Balb/c mouse peritonitis-sepsis model assessed as increase in survival at 5 mg/kg, ip measured for 48 hrs; format: functional, organism-based
# Pseudomonas aeruginosa [36] = assay: Synergistic antibacterial activity against Pseudomonas aeruginosa ATCC 27853 assessed as FICI after 24 hrs in presence of colistin by checkerboard assay; format: functional
# THP-1 = assay: Cytotoxicity against human THP-1 cells assessed as reduction in cell viability at >=12.5 uM measured after 48 hrs by resazurin dye based fluorescence assay; details: thp-1, 48 h
# Staphylococcus aureus [37] = assay: Antibacterial activity against vancomycin-sensitive Staphylococcus aureus T144 infected in Balb/c mouse assessed as reduction in bacterial burden at 5 mg/kg applied topically measured after 12 days by colony counting method; format: functional, organism-based; details: time 12.0 day
# Staphylococcus aureus [38] = assay: Antibacterial activity against […] Staphylococcus aureus ATCC 700699 assessed as ratio of MIC before and after 38 passages by broth microdilution method; format: functional
# Acinetobacter baumannii [39] = assay: Synergistic antibacterial activity against Acinetobacter baumannii ATCC BAA-1605 assessed as FIC after 24 hrs in presence of colistin by checkerboard assay relative to colistin; format: functional
# Staphylococcus aureus [40] = assay: Antibacterial activity against […] Staphylococcus aureus ATCC 700699 after 24 hrs by broth microdilution method; format: functional
# [41] = Selectivity index, ratio of IC50 for cytotoxicity against human THP-1 cells to MIC90 for antibacterial activity against […] Staphylococcus aureus ATCC 700699; format: toxicity, cell-based; details: read-out: Selectivity Index
# Acinetobacter baumannii [42] = assay: Synergistic antibacterial activity against Acinetobacter baumannii ATCC BAA-1605 assessed as FIC after 24 hrs in presence of colistin by checkerboard assay relative to test compound MIC; format: functional
# Staphylococcus aureus [43] = assay: Bactericidal activity against […] Staphylococcus aureus ATCC 700699 assessed as colony forming unit at 5 fold MIC incubated for 6 hrs followed by compound washout and subsequent compound addition by time kill assay; format: functional
# [44] = Stability of compound in pH 7.7 DMSO:PBS solution at 0.19 uM measured after 6 hrs; format: physicochemical; details: buffer, pH 7.7, 6 h
# Sequence of Pyruvate kinase PKM (Oryctolagus cuniculus) (P11974 whole entry): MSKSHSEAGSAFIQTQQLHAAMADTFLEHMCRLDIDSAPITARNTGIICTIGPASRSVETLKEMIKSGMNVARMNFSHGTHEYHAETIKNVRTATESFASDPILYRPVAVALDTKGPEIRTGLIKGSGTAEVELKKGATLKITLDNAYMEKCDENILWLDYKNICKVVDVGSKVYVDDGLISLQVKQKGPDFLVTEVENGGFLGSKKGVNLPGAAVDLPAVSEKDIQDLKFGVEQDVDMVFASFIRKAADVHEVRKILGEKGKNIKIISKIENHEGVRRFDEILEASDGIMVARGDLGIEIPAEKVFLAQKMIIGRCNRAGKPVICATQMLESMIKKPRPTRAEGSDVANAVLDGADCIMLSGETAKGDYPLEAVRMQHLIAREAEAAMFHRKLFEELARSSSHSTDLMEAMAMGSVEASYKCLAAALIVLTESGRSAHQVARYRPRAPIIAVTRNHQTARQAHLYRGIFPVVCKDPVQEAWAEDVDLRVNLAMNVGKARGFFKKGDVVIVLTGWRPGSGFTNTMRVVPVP
structure (smiles),measurement,setting,value
Clc1ccc2[nH]cc(-c3cnc(-c4c[nH]c5ccc(Cl)cc45)nc3)c2c1,FIC,Pseudomonas aeruginosa [1],<=0.0625
same,FIC,Escherichia coli [2],0.064
same,Activity,MRC5,Toxic
same,FIC,Escherichia coli [3],<=0.0313
same,Ratio,Klebsiella pneumoniae [4],8
same,fold change (FC),Staphylococcus aureus [5],10000
same,MIC,Escherichia coli [6],> 100 µM
same,selectivity ratio,[7],32
same,fractional inhibitory concentration index (FICI),Escherichia coli [8],<=0.0953
same,solubility,[9],Insoluble
same,Activity,HEK293,Toxic
same,fractional inhibitory concentration index (FICI),Acinetobacter baumannii [10],<=0.3125
same,MIC,Klebsiella pneumoniae [11],> 100 µM
same,Activity,Enterococcus faecalis [12],Active
same,Activity,Staphylococcus aureus [13],Active
same,Activity,Enterococcus faecalis [14],Active
same,Activity,Acinetobacter baumannii [15],Active
same,Activity,Staphylococcus aureus [16],<10 CFU/ml
same,fractional inhibitory concentration index (FICI),Klebsiella pneumoniae [17],<=0.25
same,MIC,Pseudomonas aeruginosa [18],> 100 µM
same,Activity,HepG2,Toxic
same,Activity,Staphylococcus aureus [19],Active
same,MIC,Acinetobacter baumannii [20],> 100 µM
same,FIC,Klebsiella pneumoniae [21],0.125
same,Activity,[22],Toxic
same,Activity,Staphylococcus aureus [23],Active
same,Activity,[24],Active
same,inhibition,Staphylococcus aureus [25],inactive
same,Activity,Staphylococcus aureus [26],Active
same,Activity,Erythrocyte,Non-Toxic
same,inhibition,[27],inactive
same,Activity,Enterococcus faecium [28],Active
same,solubility,[29],Insoluble
same,Activity,Enterococcus faecium [30],Active
same,Activity,Staphylococcus aureus [31],Active
same,FIC,Klebsiella pneumoniae [32],<=0.125
same,FIC,Pseudomonas aeruginosa [33],1
same,Ratio,Escherichia coli [34],32
same,Activity,Staphylococcus aureus [35],Active
same,fractional inhibitory concentration index (FICI),Pseudomonas aeruginosa [36],<=1.0625
same,Activity,THP-1,Toxic
same,Activity,Staphylococcus aureus [37],Active
same,Ratio,Staphylococcus aureus [38],2
same,FIC,Acinetobacter baumannii [39],0.25
same,MIC90,Staphylococcus aureus [40],0.39 µM
same,selectivity ratio,[41],32
same,FIC,Acinetobacter baumannii [42],<=0.0625
Clc1ccc2[nH]cc(-c3cnc(-c4c[nH]c5ccc(Cl)cc45)cn3)c2c1,Activity,MRC5,Toxic
same,fold change (FC),Staphylococcus aureus [5],100
same,selectivity ratio,[7],32
same,Activity,Staphylococcus aureus [43],100 CFU/ml
same,Activity,Acinetobacter baumannii [15],inactive
same,Activity,Staphylococcus aureus [16],100 CFU/ml
same,Activity,[24],inactive
same,solubility,[29],Insoluble
same,Stabilty,[44],Stable
same,Activity,THP-1,Toxic
same,MIC90,Staphylococcus aureus [40],0.39 µM
same,selectivity ratio,[41],32
